# Assay results published in the supplement of paper PMC7017272.
# ± gives the standard deviation of the averaged measurements.
# Tests used:
# UT-SCC-40 [1] = test: relative IC50 (midpoint of the fitted curve; maximal inhibition may be below 50%); higher = less potent; conditions: treatment time: 3 days
# In short: (§1)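 HPV-negative HNSCC cell lines were seeded at 500 cells/well in 384-well plates on plastic, on Matrigel- or Myogel-coated wells (500 µg/mL), or embedded in Matrigel or Myogel plus rat collagen I. Compounds were given at five 10-fold concentrations for 3 days, and viability was read by CellTiter-Glo 2.0 luminescence. Signals were normalised to vehicle (0.1% DMSO) and cell-killing control wells. Percent-inhibition dose–response curves were fitted in the FIMM pipeline to derive IC50, maximal inhibition and drug sensitivity score.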
# UT-SCC-81 [2] = test: as above; conditions: treatment time: 3 days
# In short: as §1
# UT-SCC-28 [3] = test: as above; conditions: culture condition: embedded in Myogel + collagen I; treatment time: 3 days
# In short: as §1
# UT-SCC-24B [4] = test: as above; conditions: culture condition: embedded in Myogel + collagen I; treatment time: 3 days
# In short: as §1
# UT-SCC-24A = test: drug sensitivity score (DSS); higher = more sensitive; conditions: treatment time: 3 days
# Experimental: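 HNSCC cell lines (500 cells/well, 384-well) were cultured on plastic, on top of (2D) or embedded (3D) in Matrigel or human leiomyoma matrix Myogel (500 ug/mL; Myogel 3D mixed with rat collagen I). Cells were treated for 3 days with 5 ten-fold concentrations of each drug, and viability was read by CellTiter-Glo. Suffixes _1/_2/_3 on drug names are replicates.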
# UT-SCC-42B = test: maximal % inhibition of viability relative to DMSO; higher = stronger effect; conditions: treatment time: 3 days
# Experimental: (§2)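 HNSCC cell lines (500 cells/well, 384-well) were cultured on plastic, on top of (2D) or embedded (3D) in Matrigel or human leiomyoma matrix Myogel (500 ug/mL; Myogel 3D mixed with rat collagen I). Cells were treated for 3 days with 5 ten-fold concentrations of each drug, and viability was read by CellTiter-Glo. Viability was normalised to DMSO and benzethonium chloride controls and fitted with the FIMM DSRT pipeline to give IC50 (nM), maximal % inhibition and DSS. Suffixes _1/_2/_3 are replicates. Only inhibition-mode (IC50) fits are kept.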
# UT-SCC-40 [5] = test: as above; conditions: treatment time: 3 days
# Experimental: as §2
# UT-SCC-42A = test: as above; conditions: treatment time: 3 days
# Experimental: as §2
# UT-SCC-81 [6] = test: as above; conditions: treatment time: 3 days
# Experimental: as §2
# UT-SCC-28 [7] = test: as above; conditions: treatment time: 3 days
# Experimental: as §2
# UT-SCC-44 = test: as above; conditions: treatment time: 3 days
# Experimental: as §2
# UT-SCC-24B [8] = test: as above; conditions: treatment time: 3 days
# Experimental: as §2
# UT-SCC-8 = test: as above; conditions: treatment time: 3 days
# Experimental: as §2
# UT-SCC-14 = test: as above; conditions: treatment time: 3 days
# Experimental: as §2
# UT-SCC-106A = test: as above; conditions: treatment time: 3 days
# Experimental: as §2
# UT-SCC-73 = test: as above; conditions: treatment time: 3 days
# Experimental: as §2
# [9] = culture condition: embedded in Matrigel
# [10] = culture condition: on top of Myogel
# [11] = culture condition: plastic 2D (no matrix)
# [12] = culture condition: embedded in Myogel + collagen I
# [13] = culture condition: on top of Matrigel
compound,measurement,setting,value
CO[C@H]1C[C@@H]2CC[C@@H](C)[C@@](O)(O2)C(=O)C(=O)N2CCCC[C@H]2C(=O)O[C@H]([C@H](C)C[C@@H]2CC[C@@H](OP(C)(C)=O)[C@H](OC)C2)CC(=O)[C@H](C)/C=C(\C)[C@@H](O)[C@@H](OC)C(=O)[C@H](C)C[C@H](C)/C=C/C=C/C=C/1C [Ridaforolimus],relative IC50,UT-SCC-40 [1]; [9],2.37 nM
same,relative IC50,UT-SCC-40 [1]; [10],1.94 nM
same,relative IC50,UT-SCC-40 [1]; [11],1.94 nM
same,relative IC50,UT-SCC-81 [2]; [12],2.46 nM
same,relative IC50,UT-SCC-81 [2]; [13],1.38 nM
same,relative IC50,UT-SCC-28 [3],4.01 nM
same,relative IC50,UT-SCC-24B [4],1.48 nM
same,drug sensitivity score,UT-SCC-24A; [9],10.2 ± 10 DSS
same,drug sensitivity score,UT-SCC-24A; [12],5.43 ± 0.71 DSS
same,drug sensitivity score,UT-SCC-24A; [13],4.57 ± 1.2 DSS
same,drug sensitivity score,UT-SCC-24A; [10],5.03 ± 1.4 DSS
same,drug sensitivity score,UT-SCC-24A; [11],5.87 ± 0.67 DSS
same,maximal % inhibition of viability,UT-SCC-42B; [9],16.8 ± 7.8%
same,maximal % inhibition of viability,UT-SCC-42B; [13],14.9 ± 2.2%
same,maximal % inhibition of viability,UT-SCC-42B; [10],14.2 ± 3.1%
same,maximal % inhibition of viability,UT-SCC-42B; [11],14.5 ± 1.9%
same,maximal % inhibition of viability,UT-SCC-40 [5]; [9],29.4 ± 6.9%
same,maximal % inhibition of viability,UT-SCC-40 [5]; [12],39 ± 9.4%
same,maximal % inhibition of viability,UT-SCC-40 [5]; [13],27 ± 5.7%
same,maximal % inhibition of viability,UT-SCC-40 [5]; [10],27.4 ± 1.4%
same,maximal % inhibition of viability,UT-SCC-40 [5]; [11],22.4 ± 1.4%
same,maximal % inhibition of viability,UT-SCC-42A; [9],29.5 ± 6.2%
same,maximal % inhibition of viability,UT-SCC-42A; [12],42.7 ± 5%
same,maximal % inhibition of viability,UT-SCC-42A; [13],33.3 ± 2.6%
same,maximal % inhibition of viability,UT-SCC-42A; [10],37.1 ± 6.1%
same,maximal % inhibition of viability,UT-SCC-42A; [11],35.8 ± 5%
same,maximal % inhibition of viability,UT-SCC-81 [6]; [9],50 ± 11%
same,maximal % inhibition of viability,UT-SCC-81 [6]; [12],64 ± 9.1%
same,maximal % inhibition of viability,UT-SCC-81 [6]; [13],43.9 ± 1.1%
same,maximal % inhibition of viability,UT-SCC-81 [6]; [10],54.6 ± 4.2%
same,maximal % inhibition of viability,UT-SCC-81 [6]; [11],48.4 ± 5.3%
same,maximal % inhibition of viability,UT-SCC-28 [7]; [9],30.9 ± 9.3%
same,maximal % inhibition of viability,UT-SCC-28 [7]; [12],31.5 ± 18%
same,maximal % inhibition of viability,UT-SCC-28 [7]; [13],34.8 ± 4.5%
same,maximal % inhibition of viability,UT-SCC-28 [7]; [11],33.4 ± 2.9%
same,maximal % inhibition of viability,UT-SCC-44; [9],32.8 ± 14%
same,maximal % inhibition of viability,UT-SCC-44; [12],44.1 ± 8.6%
same,maximal % inhibition of viability,UT-SCC-44; [13],39.2 ± 2.1%
same,maximal % inhibition of viability,UT-SCC-44; [10],36.9 ± 4.2%
same,maximal % inhibition of viability,UT-SCC-44; [11],33.7 ± 6.2%
same,maximal % inhibition of viability,UT-SCC-24B [8]; [9],21.4 ± 6.2%
same,maximal % inhibition of viability,UT-SCC-24B [8]; [12],38.1 ± 5.8%
same,maximal % inhibition of viability,UT-SCC-24B [8]; [13],26.7 ± 6.1%
same,maximal % inhibition of viability,UT-SCC-24B [8]; [10],31.1 ± 7.1%
same,maximal % inhibition of viability,UT-SCC-24B [8]; [11],27.4 ± 3.4%
same,maximal % inhibition of viability,UT-SCC-8; [9],45 ± 7%
same,maximal % inhibition of viability,UT-SCC-8; [12],33.2 ± 7.1%
same,maximal % inhibition of viability,UT-SCC-8; [13],38.4 ± 1.7%
same,maximal % inhibition of viability,UT-SCC-8; [10],49.2 ± 8.1%
same,maximal % inhibition of viability,UT-SCC-8; [11],46.9 ± 5.1%
same,maximal % inhibition of viability,UT-SCC-14; [9],53.4 ± 6.2%
same,maximal % inhibition of viability,UT-SCC-14; [12],57.5 ± 6.6%
same,maximal % inhibition of viability,UT-SCC-14; [13],54.5 ± 9.4%
same,maximal % inhibition of viability,UT-SCC-14; [10],48.6 ± 5.5%
same,maximal % inhibition of viability,UT-SCC-14; [11],50.7 ± 12%
same,maximal % inhibition of viability,UT-SCC-106A; [9],35 ± 4.2%
same,maximal % inhibition of viability,UT-SCC-106A; [12],27.4 ± 2.9%
same,maximal % inhibition of viability,UT-SCC-106A; [13],34.5 ± 4%
same,maximal % inhibition of viability,UT-SCC-106A; [10],27.5 ± 2.6%
same,maximal % inhibition of viability,UT-SCC-106A; [11],41 ± 1.9%
same,maximal % inhibition of viability,UT-SCC-73; [9],38.7 ± 16%
same,maximal % inhibition of viability,UT-SCC-73; [12],42.4 ± 11%
same,maximal % inhibition of viability,UT-SCC-73; [13],30.6 ± 3.4%
same,maximal % inhibition of viability,UT-SCC-73; [10],40.2 ± 1.8%
same,maximal % inhibition of viability,UT-SCC-73; [11],31.5 ± 4.3%
